Measured values: patent US7105679B2, “Heteroatom containing tetracyclic derivatives as selective estrogen receptor modulators” (priority 2001, dated 2006)
Read-outs that look alike come from different tables or passages of the source.

Key:
Ishikawa cells = assay: Alkaline Phosphatase Assay in Human Endometrial Ishikawa Cells (agonist and antagonist mode); assay type: cell-based; conditions: number in brackets = number of tests, NA = no detected activity at test concentration; for IC50: antagonist mode with 10 nM 17β-estradiol; for EC50: agonist mode
[1] = biological target: T1, human estrogen receptor α (Homo sapiens, UniProt P03372); assay: Estrogen Receptor α Flash Plate Assay (binding of radiolabeled estrogen)
T1 construct: purchased Panvera
T1 sequence (P03372 1-595): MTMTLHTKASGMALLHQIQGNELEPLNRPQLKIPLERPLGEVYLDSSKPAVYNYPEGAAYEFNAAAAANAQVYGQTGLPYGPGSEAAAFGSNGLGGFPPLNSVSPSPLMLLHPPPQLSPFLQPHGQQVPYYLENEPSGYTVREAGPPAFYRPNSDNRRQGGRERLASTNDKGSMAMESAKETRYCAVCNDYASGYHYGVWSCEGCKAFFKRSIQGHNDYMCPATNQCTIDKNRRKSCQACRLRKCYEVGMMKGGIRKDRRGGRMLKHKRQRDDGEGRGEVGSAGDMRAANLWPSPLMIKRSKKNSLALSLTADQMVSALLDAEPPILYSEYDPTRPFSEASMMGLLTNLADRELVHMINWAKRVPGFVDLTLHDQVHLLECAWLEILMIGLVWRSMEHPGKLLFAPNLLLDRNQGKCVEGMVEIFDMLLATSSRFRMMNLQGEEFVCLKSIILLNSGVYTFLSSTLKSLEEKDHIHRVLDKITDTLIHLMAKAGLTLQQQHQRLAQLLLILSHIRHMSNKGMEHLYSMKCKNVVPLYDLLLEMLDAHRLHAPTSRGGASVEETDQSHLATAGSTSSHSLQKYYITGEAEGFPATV

MCF-7 cells = assay: MCF-7 Cell Proliferation Assay (14C-thymidine, agonist and antagonist mode); assay type: cell-based; conditions: number in brackets = number of tests, NA = no detected activity at test concentration
hER-β = biological target: T2, hER-β (Homo sapiens, UniProt Q92731); assay: Estrogen Receptor β Fluorescence Polarization Assay (binding of Fluormone ES2)
T2 construct: purchased Panvera
T2 sequence (Q92731 whole entry): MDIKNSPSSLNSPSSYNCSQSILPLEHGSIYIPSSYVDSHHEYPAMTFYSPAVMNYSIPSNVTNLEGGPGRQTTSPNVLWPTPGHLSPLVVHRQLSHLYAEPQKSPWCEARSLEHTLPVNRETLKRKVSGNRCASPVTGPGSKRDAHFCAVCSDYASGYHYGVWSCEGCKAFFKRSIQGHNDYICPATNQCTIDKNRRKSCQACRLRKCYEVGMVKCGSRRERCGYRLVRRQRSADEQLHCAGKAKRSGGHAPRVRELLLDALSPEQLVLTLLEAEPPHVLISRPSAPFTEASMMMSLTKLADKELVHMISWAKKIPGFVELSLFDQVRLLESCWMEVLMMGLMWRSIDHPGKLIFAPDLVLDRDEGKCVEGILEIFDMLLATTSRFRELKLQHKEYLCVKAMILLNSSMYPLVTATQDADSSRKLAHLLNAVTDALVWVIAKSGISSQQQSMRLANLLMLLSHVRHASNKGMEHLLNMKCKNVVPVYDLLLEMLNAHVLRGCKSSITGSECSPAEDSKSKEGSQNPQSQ
Description: This assay monitors binding of a fluorescent analog of estrogen (Fluormone ES2, Panvera) to the estrogen receptor. Plates are read in a fluorometer that can be set to polarization mode. A decrease in […] relative to vehicle control is an indication of binding of a compound to the receptor.
It is crucial to avoid introduction of air bubbles into the reaction in each well of the 96 well plate throughout this procedure. (Bubbles on the surface of the reaction disrupt light flow, affecting the polarization reading.) However, it is also crucial to effectively mix the reaction components upon addition to the well.
On ice, a 2× standard mixture of Assay Buffer (Panvera), 10 nM DTT and 40 nM ES2 was prepared. On ice, a 2× reaction mixture of Assay Buffer (Panvera), and 20 nM hER-β (Panvera) and 40 nM ES2 was also prepared.
Dilutions of test compound were prepared in 30% (v/v) dimethyl sulfoxide/50 mM HEPES, pH 7.5. At this point, the dilutions were 40× the final required concentration.
The standard mixture at 50 μL was then added to each well. The reaction mixture at 48 μL was added to all wells. The compound dilution at 2.5 μL was added to the appropriate wells. The reaction mixtures were mixed using a manual pipette, a roll of aluminum foil adhesive cover was placed on the plate and the plate incubated at room temperature for 1 hour.

[2] = Homo sapiens, MCF7, antagonist mode with 10 nM 17β-estradiol
[3] = flash plate binding, 0.5 nM radiolabeled estrogen, number in brackets = No. of determinations, NA = no detected activity at test concentration, read-out: Estrogen Receptor α in μM (No.)
[4] = fluorescence polarization binding, Fluormone ES2, number in brackets = No. of determinations, NA = no detected activity at test concentration, read-out: Estrogen Receptor β in μM (No.)
[5] = Homo sapiens, MCF7, agonist mode

Row | Compound | melting point [°C] | IC50 (Ishikawa cells; Homo sapiens) [nM] | IC50 (MCF-7 cells; [2]) [nM] | IC50 [1, 3] [µM] | IC50 (hER-β; [4]) [µM] | EC50 (Ishikawa cells; Homo sapiens) [nM] | EC50 (MCF-7 cells; [5]) [nM] | also measured
1 | CC(C)(C)[Si](C)(C)Oc1ccc2c(c1)OCc1c-2c(=O)oc2cc(O[Si](C)(C)C(C)(C)C)ccc12 | 150 to 151 | – | – | – | – | – | – | –
2 | CC(C)(C)[Si](C)(C)Oc1ccc2c(c1)OC(O)C1=C2COc2cc(O[Si](C)(C)C(C)(C)C)ccc21 (stereo not drawn) | 188 to 190 | – | – | – | – | – | – | –
3 | CC(C)(C)[Si](C)(C)Oc1ccc2c(c1)OCc1c-2c(=O)oc2cc(F)ccc12 | 197 to 198 | – | – | – | – | – | – | –
4 | CC(C)(C)[Si](C)(C)Oc1ccc2c(c1)OCC1=C2C(O)Oc2cc(F)ccc21 (stereo not drawn) | 166 to 167 | – | – | – | – | – | – | –
5 | COc1ccc2c(c1)OC(c1ccc(OCCN3CCCCC3)cc1)C1=C2CCOc2cc(OC)ccc21 (single isomer, unassigned) [Compound 300, 5R*-(+)-1-{2-[4-(2,8-Dimethoxy-11,12-dihydro-5H-6,13-dioxa-benzo[3,4]cyclohepta[1,2-a]naphthalen-5-yl)-phenoxy]-ethyl}-piperidine] | – | > 100000 | 17400 | – | – | – | – | IC50 [1]: 0.06 µM; IC50 (hER-β): > 10 µM
6 | O=c1oc2cc(O)ccc2c2c1-c1ccc(O)cc1OC2 [Compound 1, 2,8-Dihydroxy-11H-chromeno[4,3-c]chromen-5-one] | > 350 | > 10000 | > 10000 | 0.505 | 0.061 | 130 | 1200 | –
7 | COc1ccc2c(c1)OCc1c-2c(=O)oc2cc(OC)ccc12 [Compound 2, 2,8-DiMethoxy-11H-chromeno[4,3-c]chromen-5-one] | 200 to 201 | > 10000 | > 10000 | – | – | > 10000 | > 10000 | –
8 | O=c1oc2cc(F)ccc2c2c1-c1ccc(O)cc1OC2 [Compound 37, 8-Fluoro-2-hydroxy-11H-chromeno[4,3-c]chromen-5-one] | 259 to 260 | – | – | – | – | – | – | –
9 | CC(C)(C)C(=O)Oc1ccc2c(c1)OC(C)(c1ccc(OCCCN3CCCCC3)cc1)C1=C2COc2cc(OC(=O)C(C)(C)C)ccc21 (stereo not drawn) [Compound 43, 2,2-Dimethyl-propionic acid 8-(2,2-dimethyl-propionyloxy)-11-methyl-11-[4-(3-piperidin-1-yl-propoxy)-phenyl]-5,11-dihydro-chromeno[4,3-c]chromen-2-yl ester] | – | 1600 | > 1000 | 0.62 | 0.165 | > 10000 | > 10000 | –

Continued, in another order:

Row | melting point [°C] | IC50 (Ishikawa cells; Homo sapiens) [nM] | IC50 (MCF-7 cells; [2]) [nM] | IC50 [1, 3] [µM] | IC50 (hER-β; [4]) [µM] | EC50 (Ishikawa cells; Homo sapiens) [nM] | EC50 (MCF-7 cells; [5]) [nM] | Compound | also measured
10 | – | – | – | 0.0074 | 0.15 | – | – | Oc1ccc2c(c1)O[C@H](c1ccc(OCCN3CCCCC3)cc1)C1=C2COc2cc(O)ccc21 (stereo in doubt) [Compound 14, 5R*-(−)-[4-(2-Piperidin-1-yl-ethoxy)-phenyl]-5,11-dihydro-chromeno[4,3-c]chromene-2,8-diol] | EC50 (Ishikawa cells): > 10000 nM; IC50 (Ishikawa cells): 149 nM; EC50 (MCF-7 cells; agonist mode): > 10000 nM; IC50 (MCF-7 cells; antagonist mode with 10 nM 17β-estradiol): 5600 nM
11 | – | 110 | 777 | 0.0023 | 0.084 | > 10000 | > 10000 | Oc1ccc2c(c1)OC(c1ccc(OCCN3CCCCC3)cc1)C1=C2COc2cc(O)ccc21 (stereo not drawn) [Compound 9, 5-[4-(2-Piperidin-1-yl-ethoxy)-phenyl]-5,11-dihydrochromeno[4,3-c]chromene-2,8-diol] | –
12 | – | 250 | 713 | 0.0019 | 0.099 | > 10000 | > 10000 | CCN(CC)CCOc1ccc(C2Oc3cc(O)ccc3C3=C2c2ccc(O)cc2OC3)cc1 (stereo not drawn) [Compound 19, 5-[4-(2-Diethylamino-ethoxy)-phenyl]-5,11-dihydrochromeno[4,3-c]chromene-2,8-diol] | –
13 | – | 830 | 970 | 0.015 | 0.011 | > 10000 | > 10000 | CN(C)CCOc1ccc(C2Oc3cc(O)ccc3C3=C2c2ccc(O)cc2OC3)cc1 (stereo not drawn) [Compound 21, 5-[4-(2-Dimethylamino-ethoxy)-phenyl]-5,11-dihydrochromeno[4,3-c]chromene-2,8-diol] | –
14 | – | 180 | > 10000 | 0.014 | 0.02 | > 10000 | 64.3 | CN(C)c1ccc(C2Oc3cc(O)ccc3C3=C2c2ccc(O)cc2OC3)cc1 (stereo not drawn) [Compound 26, 5-[4-Dimethylamino-phenyl]-5,11-dihydro-chromeno[4,3-c]chromene-2,8-diol] | –
